PubChem BioAssay AID2060888 (Molecular Pharmacology Branch, DTP, NCI, 2025)

Test system: 695427-040-R-J1-PDC complex spheroid viability
Assay: Anticancer human tumor 695427-040-R-J1-PDC patient-derived colon adenocarcinoma cell line growth inhibition [RAS]
Conditions: for IC50: curve of first compound; for viability, T/C: stronger effect = lower value
Excerpt: RAS pathway inhibitors in Combinations in Complex Spheroids
A high-throughput screen of multi-cell type tumor spheroids was designed to identify active combinations of RAS pathway inhibitors and targeted small molecules. Complex spheroids include a stromal component modeled by human endothelial cells (HUVEC) and fibroblasts modeled by human mesenchymal stem cells (MSCs). The concentration ranges selected for each drug and investigational agent were based upon clinically achievable concentrations if the clinical Cmax of the agent was known.
Compounds. The drugs and investigational agents: abemaciclib (NSC768073), cobimetinib (NSC768068), divarasib (GDC6063, NSC841802), docetaxel (NSC628503), GDC-1971 (RLY-1971, NSC841576), gemcitabine (NSC613327), inavolisib (NSC800729), ipatasertib (NSC767898), KB-0742 (NSC834161), MRTX-1133 (NSC836407), osimertinib (NSC779217), RMC-4630 (NSC839698), RMC-6236 (NSC851965), RMC-6291 (NSC852671), Ro-3306 (NSC812927), sapanisertib (NSC764658), SN-38 (NSC673596), staurosporine (NSC755774), SY5609 (NSC837396), and tovorafenib (DAY101, NSC766906), were obtained from the National Cancer Institute (NCI) Developmental Therapeutics Program Chemical Repository. The FDA-approved anticancer drug set is available from the NCI Developmental Therapeutics Program. […] The stock solutions were prepared in dimethyl sulfoxide (DMSO, Sigma-Aldrich, St. Louis, MO, cat. D2650) at 800-fold the tested concentration and stored at -70 degrees C prior to their use. All drugs and investigational agents were tested over a range starting from a high concentration at or near the clinical Cmax and decreasing in half-log increments. If the clinical Cmax for an agent had not been determined, the highest concentration tested was 10 microM.
Cell Culture. All cells were maintained in an incubator at 37 degrees C and 5% CO2 with 95% humidity. The PDC lines were cultured according to standard operating procedures established by the NCI PDMR. All PDCs were thawed and cultured in Matrigel-coated flasks prepared with a working solution of 1X Ham's F-12 nutrient mix, without supplementation (Invitrogen, Waltham, MA, cat. 11765054), 100 U/mL penicillin-streptomycin (Invitrogen, cat. 15140122), and 2.5% Matrigel (Corning Inc., Corning, NY, cat. 354248) for the first three passages. The 362531-283-R-J2-PDC and 782815-120-R-J1-PDC lines were cultured in 6C/Colon 1B media, which includes advanced DMEM/F-12 (Thermo Fisher Scientific, cat. 12634028), 10 mM HEPES (Thermo Fisher Scientific, cat. 15630080), 1X GlutaMAX supplement (Thermo Fisher Scientific, cat. 35050061), 0.1 mg/mL primocin (InvivoGen, San Diego, CA, cat. ant-pm-2), 10% defined fetal bovine serum, heat inactivated (HyClone Laboratories Inc., Logan, UT, cat. SH30070.03HI), 50% L-WRN conditioned media (ATCC, cat. CRL-3276), 1.25 mM N-Acetyl-L-cysteine (Sigma-Aldrich, cat. A9165), 10 mM nicotinamide (Sigma-Aldrich, cat. N0636), 1X B-27 supplement (Thermo Fisher Scientific, cat. 17504044), 1X N-2 supplement (Thermo Fisher Scientific, cat. 17502048), 50 ng/mL human EGF (Thermo Fisher Scientific, cat. PHG0311), and 10 microM Y-27632 dihydrochloride (Tocris Bioscience, cat. 1254). The K12877-001-R-J1-PDC line was cultured in 6I media, which includes all 6C/Colon 1B media plus 10 ng/mL human FGF-10 (PeproTech, cat. 100-26), 1 ng/mL human FGF-2 (PeproTech, cat. 100-18B), 1 µM prostaglandin E2 (Tocris Bioscience, cat. 2296), […] hydrocortisone (Sigma-Aldrich, cat. H4001), and […] bovine insulin (Sigma-Aldrich, cat. I6634). The K86415-001-R-J1-PDC line was cultured in 6D media, which includes all 6C/Colon 1B media components minus the L-WRN conditioned media. The 485176-168-R4-J1-PDC was cultured in PANC media, which includes all 6C/Colon 1B media plus 100 ng/mL human FGF-10 (PeproTech, cat. 100-26), 500 nM SB-431542 (Selleckchem, cat. S1067), and 10 nM gastrin (Tocris Bioscience, cat. 3006). […]

[1] = second compound 0.0316 µM, first compound 0.0316 µM
[2] = second compound 0.0316 µM, first compound 0.1 µM
[3] = second compound 0.1 µM, first compound 0.0316 µM
[4] = second compound 0.1 µM, first compound 0.1 µM
[5] = second compound 0.316 µM, first compound 0.0316 µM
[6] = second compound 0.316 µM, first compound 0.1 µM
[7] = second compound 1 µM, first compound 0.0316 µM
[8] = second compound 1 µM, first compound 0.1 µM
[9] = second compound 3.16 µM, first compound 0.0316 µM
[10] = second compound 3.16 µM, first compound 0.1 µM
[11] = second compound 10 µM, first compound 0.0316 µM
[12] = second compound 10 µM, first compound 0.1 µM
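Also: viability read after seven days of drug exposure.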
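For viability, T/C in this document: 100% = DMSO vehicle control viability.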

## CC(C)n1nc(-c2ccc3oc(N)nc3c2)c2c(N)ncnc21 + C#Cc1c(F)ccc2cc(O)cc(-c3ncc4c(N5CC6CCC(C5)N6)nc(OCC56CCCN5CC(F)C6)nc4c3F)c12
Second compound 0.0316 µM
  IC50: > 100 nM
Second compound 0.1 µM
  IC50: > 100 nM
Second compound 0.316 µM
  IC50: > 100 nM
Second compound 1 µM
  IC50: 22.5 nM
Second compound 3.16 µM
  IC50: 2.77 nM
Second compound 10 µM
  IC50: < 0.316 nM
Second compound 0.0316 µM, first compound 0.000316 µM
  viability, T/C: 105%
Second compound 0.0316 µM, first compound 0.001 µM
  viability, T/C: 95.1%
Second compound 0.0316 µM, first compound 0.00316 µM
  viability, T/C: 88.5%
Second compound 0.0316 µM, first compound 0.01 µM
  viability, T/C: 75.7%
[1]
  viability, T/C: 70.3%
[2]
  viability, T/C: 62.6%
Second compound 0.1 µM, first compound 0.000316 µM
  viability, T/C: 93.9%
Second compound 0.1 µM, first compound 0.001 µM
  viability, T/C: 89.4%
Second compound 0.1 µM, first compound 0.00316 µM
  viability, T/C: 90%
Second compound 0.1 µM, first compound 0.01 µM
  viability, T/C: 74.9%
[3]
  viability, T/C: 74.7%
[4]
  viability, T/C: 55.9%
Second compound 0.316 µM, first compound 0.000316 µM
  viability, T/C: 91.9%
Second compound 0.316 µM, first compound 0.001 µM
  viability, T/C: 80.9%
Second compound 0.316 µM, first compound 0.00316 µM
  viability, T/C: 78.6%
Second compound 0.316 µM, first compound 0.01 µM
  viability, T/C: 68.8%
[5]
  viability, T/C: 61.5%
[6]
  viability, T/C: 50.5%
Second compound 1 µM, first compound 0.000316 µM
  viability, T/C: 69.5%
Second compound 1 µM, first compound 0.001 µM
  viability, T/C: 64.3%
Second compound 1 µM, first compound 0.00316 µM
  viability, T/C: 63%
Second compound 1 µM, first compound 0.01 µM
  viability, T/C: 52.4%
[7]
  viability, T/C: 47.8%
[8]
  viability, T/C: 42.1%
Second compound 3.16 µM, first compound 0.000316 µM
  viability, T/C: 51.1%
Second compound 3.16 µM, first compound 0.001 µM
  viability, T/C: 58.7%
Second compound 3.16 µM, first compound 0.00316 µM
  viability, T/C: 47.4%
Second compound 3.16 µM, first compound 0.01 µM
  viability, T/C: 42.1%
[9]
  viability, T/C: 35.4%
[10]
  viability, T/C: 26.7%
Second compound 10 µM, first compound 0.000316 µM
  viability, T/C: 41.5%
Second compound 10 µM, first compound 0.001 µM
  viability, T/C: 33.5%
Second compound 10 µM, first compound 0.00316 µM
  viability, T/C: 35%
Second compound 10 µM, first compound 0.01 µM
  viability, T/C: 27%
[11]
  viability, T/C: 25%
[12]
  viability, T/C: 14.5%

## C[C@@H](NC(=O)c1ncnc(N)c1Cl)c1ncc(C(=O)Nc2cc(C(F)(F)F)c(Cl)cn2)s1 + C#Cc1c(F)ccc2cc(O)cc(-c3ncc4c(N5CC6CCC(C5)N6)nc(OCC56CCCN5CC(F)C6)nc4c3F)c12
Second compound 0.0316 µM
  IC50: > 10000 nM
Second compound 0.1 µM
  IC50: > 10000 nM
Second compound 0.316 µM
  IC50: > 10000 nM
Second compound 1 µM
  IC50: > 10000 nM
Second compound 3.16 µM
  IC50: > 10000 nM
Second compound 10 µM
  IC50: < 31.6 nM
[1]
  viability, T/C: 99.8%
[2]
  viability, T/C: 117%
Second compound 0.0316 µM, first compound 0.316 µM
  viability, T/C: 108%
Second compound 0.0316 µM, first compound 1 µM
  viability, T/C: 102%
Second compound 0.0316 µM, first compound 3.16 µM
  viability, T/C: 101%
Second compound 0.0316 µM, first compound 10 µM
  viability, T/C: 80.2%
[3]
  viability, T/C: 109%
[4]
  viability, T/C: 106%
Second compound 0.1 µM, first compound 0.316 µM
  viability, T/C: 101%
Second compound 0.1 µM, first compound 1 µM
  viability, T/C: 100%
Second compound 0.1 µM, first compound 3.16 µM
  viability, T/C: 94.3%
Second compound 0.1 µM, first compound 10 µM
  viability, T/C: 70.9%
[5]
  viability, T/C: 99.8%
[6]
  viability, T/C: 95.1%
Second compound 0.316 µM, first compound 0.316 µM
  viability, T/C: 101%
Second compound 0.316 µM, first compound 1 µM
  viability, T/C: 93%
Second compound 0.316 µM, first compound 3.16 µM
  viability, T/C: 81.6%
Second compound 0.316 µM, first compound 10 µM
  viability, T/C: 70.3%
[7]
  viability, T/C: 87.9%
[8]
  viability, T/C: 83.2%
Second compound 1 µM, first compound 0.316 µM
  viability, T/C: 88.5%
Second compound 1 µM, first compound 1 µM
  viability, T/C: 84.1%
Second compound 1 µM, first compound 3.16 µM
  viability, T/C: 76.3%
Second compound 1 µM, first compound 10 µM
  viability, T/C: 57.2%
[9]
  viability, T/C: 59.2%
[10]
  viability, T/C: 60.5%
Second compound 3.16 µM, first compound 0.316 µM
  viability, T/C: 65.9%
Second compound 3.16 µM, first compound 1 µM
  viability, T/C: 63.9%
Second compound 3.16 µM, first compound 3.16 µM
  viability, T/C: 56.9%
Second compound 3.16 µM, first compound 10 µM
  viability, T/C: 42.5%
[11]
  viability, T/C: 35.1%
[12]
  viability, T/C: 34.4%
Second compound 10 µM, first compound 0.316 µM
  viability, T/C: 42.2%
Second compound 10 µM, first compound 1 µM
  viability, T/C: 37.9%
Second compound 10 µM, first compound 3.16 µM
  viability, T/C: 41.3%
Second compound 10 µM, first compound 10 µM
  viability, T/C: 27.8%
